Data reported in publication PMC9835529, “Investigation of Novel Quinoline–Thiazole Derivatives as Antimicrobial Agents: In Vitro and In Silico Approaches” (ACS Omega, 2022).
In brackets after ≈: the same amount, converted by molar mass. Read-outs that look alike come from different tables or passages of the source.

How the values were obtained:
[1] = test system: Candida parapsilosis ATCC 22019; assay: Anticandidal broth microdilution (EUCAST EDef 7.1), MIC90; type: cell-based
Text: (§1) E. coli (ATCC 35218), E. coli (ATCC 25922), S. aureus (ATCC 6538), methicillin-resistant S. aureus (MRSA) (clinical isolate), S. typhimurium (ATCC 13311), and K. pneumoniae (NCTC 9633) cells for antibacterial effect, and C. albicans (ATCC 24433), C. glabrata (ATCC 90030), C. krusei (ATCC 6258), and C. parapsilosis (ATCC 22019) for the antifungal effect of the final compounds were used to determine the MIC90 values. The broth microdilution procedure specified in the M07-A9 document of the Clinical and Laboratory Standards Institute (CLSI) was used for antibacterial study,[55] and the EDef 7.1 document published by EUCAST was used for the antifungal study.[56] For both activity studies, the detailed procedures were explained in previous studies.[57],[58]

[2] = test system: Candida krusei ATCC 6258; assay: as above; type: cell-based
Text: as §1

[3] = test system: Candida albicans ATCC 24433; assay: as above; type: cell-based
Text: as §1

[4] = target: T1, Lanosterol 14α-demethylase (LMD, CYP51A1) (Candida glabrata, UniProt P50859); assay: LDM (CYP51A1) inhibition by LC-MS-MS quantification of ergosterol level; type: cell-based; conditions: for inhibition at 0.06 µg/mL / inhibition at 0.24 µg/mL / inhibition at 0.98 µg/mL: read-out: CYP51A1 Inhibition%
T1 construct: tested against Candida strains via the determination of ergosterol production; endogenous in cells; host or cells: C. glabrata (ATCC 90030)
Description: (§2) The activity of the target compounds was tested against Candida strains via the determination of ergosterol production.
(§3) Ergosterol level was determined using the extract of total sterols from C. albicans (and its other species) following the method described by Breivik and Owades.[63] Quantification of the ergosterol level in this extract was carried out by the recently described method.[58],[64]−[66] According to these described studies, in the current work, compounds 4b, 4e, 4f, and 4h–m were undertaken to investigate their action mechanism. Thus, the LC-MS-MS-based method that quantifies the ergosterol level was applied. […]. Ergosterol quantity in negative control samples was regarded as 100%. All concentrations were analyzed in quadruplicate, and the results were expressed as mean ± standard deviation (SD).

[5] = test system: methicillin-resistant S. aureus (MRSA) (clinical isolate); assay: Antibacterial broth microdilution (CLSI M07-A9), MIC90; type: cell-based; conditions: Staphylococcus aureus
Text: (§4) The broth microdilution procedure specified in the M07-A9 document of the Clinical and Laboratory Standards Institute (CLSI) was used for antibacterial study,[55] and the EDef 7.1 document published by EUCAST was used for the antifungal study.[56] For both activity studies, the detailed procedures were explained in previous studies.[57],[58]

[6] = test system: Klebsiella pneumoniae NCTC 9633; assay: as above; type: cell-based; conditions: NCTC9633, K. pneumoniae NCTC 9633
Text: as §4

[7] = test system: Salmonella typhimurium ATCC 13311; assay: as above; type: cell-based; conditions: Salmonella enterica; S. typhimurium ATCC 13311
Text: as §4

[8] = test system: Escherichia coli ATCC 35218; assay: as above; type: cell-based; conditions: Escherichia coli, ATCC35218; E. coli ATCC 35218
Text: as §4

[9] = test system: Staphylococcus aureus ATCC 6538; assay: as above; type: cell-based; conditions: S. aureus ATCC 6538
Text: as §4

[10] = test system: E. coli ATCC 25922; assay: as above; type: cell-based; conditions: Escherichia coli, ATCC25922
Text: as §4

[11] = test system: NIH/3T3 cells; assay: Cytotoxicity on NIH/3T3 healthy cell line; type: cell-based; conditions: Mus musculus, NIH3T3, 24 h incubation
Description: NIH/3T3 cells were incubated in Dulbecco’s modified Eagle’s medium (DMEM) (Sigma-Aldrich, St. Louis, MO), added with fetal calf serum, penicillin (100 IU/mL), streptomycin ([…]), and 7.5% NaHCO3 at 37 °C in a humidified atmosphere of 95% air and 5% CO2. NIH/3T3 cells were seeded into the 96-well plates at a density of 1 × 10^4 cells. After 24 h of incubating period, the culture media were removed, and test compounds were added. After 24 h of incubation period, colorimetric measurements were performed by a microplate reader (Biotek) at 540 nm. Inhibition % at all concentrations was determined using the formula below, and the IC50 values were calculated from a dose–response curve obtained by plotting the percentage inhibition versus the log concentration with the use of Microsoft Excel 2013.

[12] = test system: C. glabrata ATCC 90030; assay: Anticandidal broth microdilution (EUCAST EDef 7.1), MIC90; type: cell-based, Candida glabrata; conditions: Nakaseomyces glabratus, ATCC90030, C. glabrata ATCC 90030
Text: as §1

[13] = test system: Lanosterol 14α-demethylase (LMD, CYP51A1); assay: LDM (CYP51A1) inhibition by LC-MS-MS quantification of ergosterol level; type: cell-based
Description: as §2, §3

[14] = Lodderomyces parapsilosis, ATCC22019, C. parapsilosis ATCC 22019, read-out: MIC90
[15] = Pichia kudriavzevii, ATCC6258, C. krusei ATCC 6258, read-out: MIC90
[16] = Candida albicans, ATCC24433, C. albicans ATCC 24433, read-out: MIC90
[17] = Staphylococcus aureus, ATCC6538, read-out: MIC90

T1 sequence (P50859 whole entry): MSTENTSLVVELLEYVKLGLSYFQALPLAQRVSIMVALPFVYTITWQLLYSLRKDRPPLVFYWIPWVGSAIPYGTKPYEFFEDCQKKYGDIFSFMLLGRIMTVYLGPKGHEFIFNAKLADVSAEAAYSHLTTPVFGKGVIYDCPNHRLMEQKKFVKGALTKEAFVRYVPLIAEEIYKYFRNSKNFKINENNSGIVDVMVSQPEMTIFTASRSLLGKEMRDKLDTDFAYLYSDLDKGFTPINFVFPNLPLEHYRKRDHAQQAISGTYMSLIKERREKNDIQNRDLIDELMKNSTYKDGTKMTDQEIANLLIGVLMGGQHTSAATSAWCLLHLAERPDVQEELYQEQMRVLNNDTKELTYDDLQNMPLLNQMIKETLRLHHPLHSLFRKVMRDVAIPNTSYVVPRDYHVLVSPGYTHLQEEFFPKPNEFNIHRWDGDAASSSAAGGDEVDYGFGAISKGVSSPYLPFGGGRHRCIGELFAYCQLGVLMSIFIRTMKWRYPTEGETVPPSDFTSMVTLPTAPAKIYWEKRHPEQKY

Row | Compound | MIC90 [1, 14] [µg/mL] | MIC90 [2, 15] [µg/mL] | MIC90 [3, 16] [µg/mL] | inhibition at 0.06 µg/mL ([4]; C. glabrata, 0.06 μg/mL) [%] | inhibition at 0.24 µg/mL ([4]; C. glabrata, 0.24 μg/mL) [%] | inhibition at 0.98 µg/mL ([4]; C. glabrata, 0.98 μg/mL) [%] | melting point [°C] | MIC90 [5] [µg/mL] | MIC90 [6] [µg/mL] | MIC90 [7] [µg/mL] | MIC90 [8] [µg/mL] | MIC90 [9, 17] [µg/mL] | MIC90 [10] [µg/mL] | IC50 [11] [µM] | MIC90 [12] [µg/mL] | also measured
1 | COc1ccc2nc(Cl)c(/C=N/Nc3nc(-c4ccc(C#N)cc4)cs3)cc2c1 [4e] | 3.91 (≈ 9.31 µM) | 62.5 (≈ 149 µM) | 3.91 (≈ 9.31 µM) | 16.7 ± 0.774 | 18.3 ± 0.785 | 21.7 ± 0.955 | 240 to 242 | > 1000 | > 1000 | > 1000 | > 1000 | > 1000 | > 1000 | > 1000 | < 0.06 | effect on ergosterol production / LMD enzyme inhibition (in words) ([4]; C. glabrata): did not decrease the ergosterol production compared to the standard drugs
2 | COc1ccc2nc(Cl)c(C=NNc3nc(-c4ccc(Cl)cc4)cs3)cc2c1 [4b] | 31.2 (≈ 72.8 µM) | 31.2 (≈ 72.8 µM) | > 1000 | 36.2 ± 0.965 | 51.8 ± 1.61 | 60.2 ± 2.1 | 195 to 197 | > 1000 | > 1000 | > 1000 | > 1000 | > 1000 | > 1000 | 14.7 ± 0.34 | < 0.06 | effect on ergosterol production / LMD enzyme inhibition (in words) ([4]; C. glabrata): showed their anticandidal activity via LMD enzyme inhibition
3 | COc1ccc2nc(Cl)c(/C=N/Nc3nc(-c4ccc([N+](=O)[O-])cc4)cs3)cc2c1 [4c] | 31.2 (≈ 71 µM) | 31.2 (≈ 71 µM) | > 1000 | – | – | – | 245 to 253 | > 1000 | > 1000 | > 1000 | > 1000 | > 1000 | > 1000 | 31.6 ± 0.87 | 62.5 (≈ 142 µM) | –
4 | COc1ccc2nc(Cl)c(/C=N/Nc3nc(-c4ccc(F)cc4)cs3)cc2c1 [4a] | 15.6 (≈ 37.9 µM) | 31.2 (≈ 75.7 µM) | > 1000 | – | – | – | 193 to 195 | > 1000 | > 1000 | > 1000 | > 1000 | > 1000 | > 1000 | 39.8 ± 1.45 | 1.95 (≈ 4.72 µM) | –
5 | COc1ccc2nc(Cl)c(/C=N/Nc3nc(-c4ccc5ccccc5c4)cs3)cc2c1 [4n] | 1.95 (≈ 4.38 µM) | 1.95 (≈ 4.38 µM) | 3.91 (≈ 8.79 µM) | – | – | – | 199 to 202 | > 1000 | > 1000 | > 1000 | > 1000 | 62.5 (≈ 140 µM) | > 1000 | > 1000 | 1.95 (≈ 4.38 µM) | –
6 | COc1ccc2nc(Cl)c(C=NNc3nc(-c4ccc(C)cc4)cs3)cc2c1 [4f] | 3.91 (≈ 9.56 µM) | 3.91 (≈ 9.56 µM) | > 1000 | 42.1 ± 1.56 | 53.8 ± 2.39 | 65.1 ± 1.68 | 194 to 196 | > 1000 | > 1000 | > 1000 | > 1000 | > 1000 | > 1000 | > 1000 | < 0.06 | effect on ergosterol production / LMD enzyme inhibition (in words) ([4]; C. glabrata): showed their anticandidal activity via LMD enzyme inhibition
7 | COc1ccc2nc(Cl)c(C=NNc3nc(-c4cccc(Cl)c4)cs3)cc2c1 [4h] | 125 (≈ 291 µM) | ≤ 0.06 | > 1000 | – | – | – | 200 to 202 | > 1000 | > 1000 | > 1000 | > 1000 | > 1000 | > 1000 | 14.5 ± 0.57 | 31.2 (≈ 72.8 µM) | effect on ergosterol production / LMD enzyme inhibition (in words) ([13]; C. krusei): showed their anticandidal activity via LMD enzyme inhibition; CYP51A1 Inhibition% ([13]; C. krusei, 0.06 μg/mL): 45.530 ± 0.961%; CYP51A1 Inhibition% ([13]; C. krusei, 0.24 μg/mL): 60.184 ± 1.985%; CYP51A1 Inhibition% ([13]; C. krusei, 0.98 μg/mL): 67.651 ± 1.736%
8 | OC(Cn1cncn1)(Cn1cncn1)c1ccc(F)cc1F [fluconazole, reference compound] | – | – | – | – | – | – | – | – | – | – | – | – | – | – | – | CYP51A1 Inhibition% ([13]; C. krusei, 0.06 μg/mL): 43.378 ± 0.937%; CYP51A1 Inhibition% ([13]; C. krusei, 0.24 μg/mL): 60.132 ± 2.042%; CYP51A1 Inhibition% ([13]; C. krusei, 0.98 μg/mL): 72.523 ± 1.961%; CYP51A1 Inhibition% ([13]; C. parapsilosis, 0.06 μg/mL): 49.579 ± 1.733%; CYP51A1 Inhibition% ([13]; C. parapsilosis, 0.24 μg/mL): 61.533 ± 1.282%; CYP51A1 Inhibition% ([13]; C. parapsilosis, 0.98 μg/mL): 73.204 ± 2.031%; inhibition at 0.06 µg/mL [4]: 46.3 ± 0.936%; inhibition at 0.24 µg/mL [4]: 63.7 ± 2.19%; inhibition at 0.98 µg/mL [4]: 70.1 ± 2.05%
9 | O=C(N[C@H](CO)[C@H](O)c1ccc([N+](=O)[O-])cc1)C(Cl)Cl [chloramphenicol, reference compound] | – | – | – | – | – | – | – | 31.2 (≈ 96.7 µM) | 31.2 (≈ 96.7 µM) | 31.2 (≈ 96.7 µM) | 31.2 (≈ 96.7 µM) | ≤ 1.95 | 15.6 (≈ 48.4 µM) | – | – | MIC90 ([9]; listed as RF-1): ≤1.95 µg/mL
10 | CC(=O)N1CCN(c2ccc(OCC3COC(Cn4ccnc4)(c4ccc(Cl)cc4Cl)O3)cc2)CC1 (stereo not drawn) [ketoconazole, reference compound] | < 0.06 | < 0.06 | < 0.06 | 50.4 ± 1.16 | 61.9 ± 1.83 | 72.8 ± 2.87 | – | – | – | – | – | – | – | – | 0.24 (≈ 0.452 µM) | MIC90 ([1]; C. parapsilosis ATCC 22019, listed as Rf): ≤0.06 µg/mL; MIC90 ([2]; C. krusei ATCC 6258, listed as Rf): ≤0.06 µg/mL; MIC90 ([3]; C. albicans ATCC 24433, listed as Rf): ≤0.06 µg/mL; CYP51A1 Inhibition% ([13]; C. krusei, 0.06 μg/mL): 52.865 ± 1.662%; CYP51A1 Inhibition% ([13]; C. krusei, 0.24 μg/mL): 60.630 ± 2.875%; CYP51A1 Inhibition% ([13]; C. krusei, 0.98 μg/mL): 75.647 ± 2.749%; CYP51A1 Inhibition% ([13]; C. parapsilosis, 0.06 μg/mL): 55.348 ± 1.091%; CYP51A1 Inhibition% ([13]; C. parapsilosis, 0.24 μg/mL): 63.419 ± 2.074%; CYP51A1 Inhibition% ([13]; C. parapsilosis, 0.98 μg/mL): 71.864 ± 2.229%
11 | COc1ccc2nc(Cl)c(/C=N/Nc3nc(-c4ccccc4)cs3)cc2c1 [4d] | 15.6 (≈ 39.6 µM) | 1.95 (≈ 4.94 µM) | 1.95 (≈ 4.94 µM) | – | – | – | 220 to 222 | > 1000 | > 1000 | > 1000 | > 1000 | > 1000 | > 1000 | 1.26 ± 0.033 | 1.95 (≈ 4.94 µM) | –
